Columns and labels:
[1] = tested on: PC-3 Human Prostate Tumors; experiment: PC-3 human prostate tumor xenograft in nude mice; format: in vivo; design: unit not given here; details: Table 4
Method in brief: (§1)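 Subcutaneous HL-60 (5 x10^5 cells) or PC-3 (5 x 10^6 cells) xenografts in nude mice; ip dosing qd 5x/wk from 50–100 mm^3 tumors, at MTD and 1/3 MTD, ~3 wk (HL-60) or ~5 wk (PC-3). Caliper tumor volume ½(a x b2) twice weekly; body weight weekly.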

Colo-205 = experiment: In vitro proliferation assay (MTT), Colo-205; format: cell-based; details: Homo sapiens, COLO 205; MTT assay; value (SD, n) where given; read-out: Colo-205 Colon (IC50 µM)
Method in brief: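 After 3 days of compound exposure, MTT was added to Colo-205 cultures for 2–4 h at 37 °C. Formazan was dissolved in DMSO and absorbance read at 570 nm. Cells had been plated at 1000–2500/well and left to recover overnight; IC50 values came from the raw readings.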

MDA-MB-435 = experiment: In vitro proliferation assay (MTT), MDA-MB-435; format: cell-based, human; details: Homo sapiens, MDA-MB-435, MTT assay; value (SD, n) where given; read-out: MB-435 Breast (IC50 µM)
Method in brief: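 Following 3 days of compound treatment, MTT was added and the dye dissolved in DMSO for 570 nm absorbance; IC50s derived from these raw readings. Seeding density 1000 to 2500 cells/well depending on line, with overnight recovery before dosing.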

HL-60 Human Leukemia = experiment: HL-60 human leukemia xenograft in nude mice; format: in vivo; design: key: tumor volume = ½(a × b²) from caliper diameters, in mm^3; details: Table 4
Method in brief: as §1

cdk1/cyclin B = cdk1/cyclin B (Homo sapiens, UniProt P06493); experiment: Cyclin-dependent kinase assay, cdk1/cyclin B; details: CDK1 IC50, nM, Histone H1, 10 µM ATP
cdk1/cyclin B, sequence (P06493 whole entry): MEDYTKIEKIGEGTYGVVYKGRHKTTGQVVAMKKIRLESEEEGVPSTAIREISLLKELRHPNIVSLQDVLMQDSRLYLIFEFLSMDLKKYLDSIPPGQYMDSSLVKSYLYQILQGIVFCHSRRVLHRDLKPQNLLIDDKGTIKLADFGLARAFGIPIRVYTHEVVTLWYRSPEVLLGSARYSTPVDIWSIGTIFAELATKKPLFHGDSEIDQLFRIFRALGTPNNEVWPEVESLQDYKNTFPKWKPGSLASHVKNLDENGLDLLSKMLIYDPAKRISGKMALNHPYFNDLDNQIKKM
cdk1/cyclin B, sequence (P14635 whole entry partner): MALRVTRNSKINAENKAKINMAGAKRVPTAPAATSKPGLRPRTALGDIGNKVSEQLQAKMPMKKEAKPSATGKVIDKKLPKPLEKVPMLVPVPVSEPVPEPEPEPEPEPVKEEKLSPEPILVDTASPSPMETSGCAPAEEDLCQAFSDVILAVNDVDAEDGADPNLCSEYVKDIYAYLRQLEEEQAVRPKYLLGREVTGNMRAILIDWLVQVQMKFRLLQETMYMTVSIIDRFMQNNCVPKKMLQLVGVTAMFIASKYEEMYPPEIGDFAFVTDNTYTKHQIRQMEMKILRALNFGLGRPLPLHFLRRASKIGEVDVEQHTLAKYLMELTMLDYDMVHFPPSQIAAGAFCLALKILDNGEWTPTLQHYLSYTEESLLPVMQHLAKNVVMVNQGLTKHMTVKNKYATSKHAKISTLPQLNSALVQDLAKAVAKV

Jurkat = experiment: In vitro proliferation assay (MTT), Jurkat; format: cell-based; details: Homo sapiens, MTT assay, value (SD, n) where given, read-out: Jurkat Leuk. (IC50 µM)
Method in brief: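 Viability was read as absorbance at 570 nm after DMSO solubilization of MTT dye, which was given to cultures for 2 to 4 hr at 37 C on day 3 of compound treatment. Cells were seeded overnight beforehand at 1000 to 2500/well. IC50 values came from MTT or SRB data.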

[2] = Red blood cell binding, human whole blood; format: in vitro ADME; details: 30 minutes at 37°C, 500 ng/ml

Row | SMILES | PC-3 Mean Vol. ± SD ([1]; dose 0.3 mg/kg ip) | PC-3 Mean Vol. ± SD ([1]; dose 1 mg/kg ip) | IC50 (Colo-205) [µM] | IC50 (MDA-MB-435) [µM] | HL60 Mean Vol. ± SD (HL-60 Human Leukemia; dose 0.3 mg/kg ip) | HL60 Mean Vol. ± SD (HL-60 Human Leukemia; dose 1 mg/kg ip) | IC50 (cdk1/cyclin B) [nM] | IC50 (Jurkat) [µM] | Mean Red Blood Cell to Plasma Ratio [2] | PC-3 Mean Vol. ± SD ([1]; dose 3 mg/kg ip) | HL60 Mean Vol. ± SD (HL-60 Human Leukemia; dose 3 mg/kg ip) | PC-3 Mean Vol. ± SD ([1]; dose 10 mg/kg ip) | HL60 Mean Vol. ± SD (HL-60 Human Leukemia; dose 10 mg/kg ip)
1 | Cl.Cl.N[C@H]1CC[C@H](Nc2nc(NC3CCN(S(=O)(=O)c4cccc(C(F)(F)F)c4)CC3)c3ncn(C4CCCC4)c3n2)CC1 [compound 112, trans-N^2-(4-Amino-cyclohexyl)-9-cyclopentyl-N^6-[1-(3-trifluoromethyl-benzenesulfonyl)-piperidin-4-yl]-9H-purine-2,6-diamine dihydrochloride] | 1302 ± 869 | 1155 ± 872 | < 0.02 | 0.87 | 5413 ± 2845 | 4170 ± 3111 | 32 | 0.11 | 3.7 |  |  |  | 
2 | Cl.Cl.N[C@H]1CC[C@H](Nc2nc(NC3CCN(C(=O)Nc4ccc(C(F)(F)F)cc4)CC3)c3ncn(C4CCCC4)c3n2)CC1 [compound 149, trans-4-[2-(4-Amino-cyclohexylamino)-9-cyclopentyl-9H-purin-6-ylamino]-piperidine-1-carboxylic acid (4-trifluoromethyl-phenyl)-amide dihydrochloride] |  | 1084 ± 929 | 0.09 | 0.15 |  | 4010 ± 2371 | 30 | 0.22 | 2.8 | 2089 ± 1382 | 2505 ± 2104 |  | 
3 | CCOC(=O)c1ccc(NC(=O)N2CCC(Nc3nc(N[C@H]4CC[C@H](N)CC4)nc4c3ncn4C3CCCC3)CC2)cc1.Cl.Cl [compound 154, trans-4-[(1-{4-[2-(4-Amino-cyclohexylamino)-9-cyclopentyl-9H-purin-6-ylamino]-piperidin-1-yl}-methanoyl)-amino]-benzoic acid ethyl ester dihydrochloride] |  |  | 0.01 | 0.21 |  |  | 11 | 0.25 | 4.1 | 1385 ± 873 | 2641 ± 3024 | 1707 ± 721 | 2950 ± 1929
